Measurements: the supplement of paper PMC4862054

Assays:
Assay in all cases: normalised response (% of control), CellTox Green; higher = less cell death (100 = DMSO, 0 = benzethonium chloride kill control)
Settings in all cases: incubation time: 72 h
[1] = system: BT-474
Procedure, shortened: (§1)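 Breast cancer cell lines (20 µl suspension) were seeded into 384-well plates holding compound at 5 concentrations in 10-fold steps over a compound-specific 10,000-fold range, then incubated 72 h. CellTox Green fluorescence (485/520 nm) was read first, then CellTiter-Glo luminescence after 10 min at room temperature. Each plate was normalised to 0.1 % DMSO (100) and a positive kill control (0). Each value is the normalised signal at a single concentration of the series.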

[2] = system: BT-549
Procedure, shortened: as §1

[3] = system: CAL-120
Procedure, shortened: as §1

[4] = system: CAL-148
Procedure, shortened: as §1

[5] = system: CAL-51
Procedure, shortened: as §1

[6] = system: CAL-85-1
Procedure, shortened: as §1

[7] = system: DU-4475
Procedure, shortened: as §1

[8] = system: HCC1599
Procedure, shortened: as §1

[9] = system: HCC1937
Procedure, shortened: as §1

[10] = system: HDQ-P1
Procedure, shortened: as §1

[11] = system: Hs578T
Procedure, shortened: as §1

[12] = system: MCF-10A
Procedure, shortened: as §1

[13] = system: MDA-MB-231
Procedure, shortened: as §1

[14] = system: MDA-MB-436
Procedure, shortened: as §1

[15] = system: MDA-MB-453
Procedure, shortened: as §1

[16] = system: MDA-MB-468
Procedure, shortened: as §1

[17] = system: MFM-223
Procedure, shortened: as §1

[18] = system: HCC1143
Procedure, shortened: as §1

## COc1cccc2c1C(=O)c1c(O)c3c(c(O)c1C2=O)C[C@@](O)(C(=O)CO)C[C@@H]3O[C@H]1C[C@H](N)[C@H](O)[C@H](C)O1 [Doxorubicin] (100 nM)
[1]
  normalised response: 105%
[2]
  normalised response: 160%
[3]
  normalised response: 100%
[4]
  normalised response: 81.4%
[5]
  normalised response: 43.3%
[6]
  normalised response: 96.4%
[7]
  normalised response: 96.4%
[8]
  normalised response: 100%
[9]
  normalised response: 134%
[10]
  normalised response: 78.6%
[11]
  normalised response: 103%
[12]
  normalised response: 115%
[13]
  normalised response: 111%
[14]
  normalised response: 95.2%
[15]
  normalised response: 109%
[16]
  normalised response: 151%
[17]
  normalised response: 86.3%

## Cc1ccc(F)c(NC(=O)Nc2ccc(-c3cccc4[nH]nc(N)c34)cc2)c1 [Linifanib] (1000 nM)
[1]
  normalised response: 101%
[2]
  normalised response: 122%
[3]
  normalised response: 97.9%
[4]
  normalised response: 95.7%
[5]
  normalised response: 99.5%
[6]
  normalised response: 65.7%
[7]
  normalised response: 106%
[18]
  normalised response: 87.2%
[8]
  normalised response: 104%
[9]
  normalised response: 104%
[11]
  normalised response: 105%
[12]
  normalised response: 90%
[13]
  normalised response: 110%
[14]
  normalised response: 107%
[15]
  normalised response: 102%
[16]
  normalised response: 86.9%
[17]
  normalised response: 101%

## Clc1ccc(C(c2ccccc2Cl)C(Cl)Cl)cc1 (stereo unspecified) [Mitotane] (1000 nM)
[1]
  normalised response: 100%
[2]
  normalised response: 115%
[3]
  normalised response: 98.1%
[4]
  normalised response: 104%
[5]
  normalised response: 103%
[6]
  normalised response: 108%
[7]
  normalised response: 98.3%
[18]
  normalised response: 87%
[8]
  normalised response: 93.5%
[9]
  normalised response: 99.9%
[10]
  normalised response: 56.1%
[12]
  normalised response: 96.4%
[13]
  normalised response: 95.2%
[14]
  normalised response: 96.3%
[15]
  normalised response: 100%
[16]
  normalised response: 140%
[17]
  normalised response: 93.7%

## Clc1ccc(C(c2ccccc2Cl)C(Cl)Cl)cc1 (stereo unspecified) [Mitotane] (10000 nM)
[1]
  normalised response: 98%
[2]
  normalised response: 93.4%
[3]
  normalised response: 95.6%
[4]
  normalised response: 98.1%
[5]
  normalised response: 98.5%
[6]
  normalised response: 107%
[7]
  normalised response: 97.7%
[18]
  normalised response: 68.9%
[8]
  normalised response: 99.5%
[10]
  normalised response: 106%
[11]
  normalised response: 105%
[12]
  normalised response: 100%
[14]
  normalised response: 99.5%
[15]
  normalised response: 104%
[16]
  normalised response: 80.3%
[17]
  normalised response: 96.9%

## COc1cccc2cc(-c3nc([C@H]4CC[C@H](C(=O)O)CC4)n4ncnc(N)c34)[nH]c12 [OSI-027] (1000 nM)
[1]
  normalised response: 100%
[2]
  normalised response: 102%
[3]
  normalised response: 97.3%
[4]
  normalised response: 107%
[5]
  normalised response: 104%
[6]
  normalised response: 93.6%
[7]
  normalised response: 97.3%
[8]
  normalised response: 101%
[10]
  normalised response: 108%
[11]
  normalised response: 106%
[12]
  normalised response: 106%
[13]
  normalised response: 65%
[14]
  normalised response: 91.9%
[15]
  normalised response: 105%
[16]
  normalised response: 119%
[17]
  normalised response: 98.9%

## N#CC[C@H](C1CCCC1)n1cc(-c2ncnc3[nH]ccc23)cn1 [Ruxolitinib] (1000 nM)
[1]
  normalised response: 100%
[2]
  normalised response: 127%
[3]
  normalised response: 96.5%
[4]
  normalised response: 104%
[5]
  normalised response: 111%
[6]
  normalised response: 108%
[7]
  normalised response: 95.8%
[18]
  normalised response: 102%
[8]
  normalised response: 95.2%
[10]
  normalised response: 86.3%
[11]
  normalised response: 83.8%
[13]
  normalised response: 107%
[14]
  normalised response: 96.2%
[15]
  normalised response: 102%
[16]
  normalised response: 119%
[17]
  normalised response: 96.2%

## N#CC[C@H](C1CCCC1)n1cc(-c2ncnc3[nH]ccc23)cn1 [Ruxolitinib] (10000 nM)
[1]
  normalised response: 98.6%
[2]
  normalised response: 113%
[3]
  normalised response: 98.7%
[4]
  normalised response: 95.1%
[5]
  normalised response: 76.2%
[6]
  normalised response: 84.8%
[7]
  normalised response: 98.2%
[18]
  normalised response: 98.3%
[8]
  normalised response: 96.7%
[11]
  normalised response: 118%
[12]
  normalised response: 90%
[13]
  normalised response: 93.4%
[14]
  normalised response: 97.7%
[15]
  normalised response: 98.4%
[16]
  normalised response: 149%
[17]
  normalised response: 94.1%

## C=CC[C@@H]1/C=C(\C)C[C@H](C)C[C@H](OC)[C@H]2O[C@@](O)(C(=O)C(=O)N3CCCC[C@H]3C(=O)O[C@H](/C(C)=C/[C@@H]3CC[C@@H](O)[C@H](OC)C3)[C@H](C)[C@@H](O)CC1=O)[C@H](C)C[C@@H]2OC [Tacrolimus] (1000 nM)
[1]
  normalised response: 99.5%
[2]
  normalised response: 116%
[3]
  normalised response: 99.5%
[4]
  normalised response: 104%
[5]
  normalised response: 110%
[6]
  normalised response: 96.3%
[7]
  normalised response: 100%
[18]
  normalised response: 102%
[8]
  normalised response: 90.2%
[9]
  normalised response: 97.2%
[12]
  normalised response: 108%
[13]
  normalised response: 108%
[14]
  normalised response: 89.6%
[15]
  normalised response: 106%
[16]
  normalised response: 130%

## C=CC[C@@H]1/C=C(\C)C[C@H](C)C[C@H](OC)[C@H]2O[C@@](O)(C(=O)C(=O)N3CCCC[C@H]3C(=O)O[C@H](/C(C)=C/[C@@H]3CC[C@@H](O)[C@H](OC)C3)[C@H](C)[C@@H](O)CC1=O)[C@H](C)C[C@@H]2OC [Tacrolimus] (10000 nM)
[1]
  normalised response: 101%
[2]
  normalised response: 103%
[3]
  normalised response: 97.6%
[4]
  normalised response: 95.8%
[5]
  normalised response: 97.9%
[6]
  normalised response: 92.3%
[7]
  normalised response: 99.8%
[18]
  normalised response: 91.2%
[8]
  normalised response: 100%
[9]
  normalised response: 93.6%
[10]
  normalised response: 88.2%
[11]
  normalised response: 112%
[12]
  normalised response: 70.6%
[14]
  normalised response: 92.5%
[15]
  normalised response: 100%
[16]
  normalised response: 52.5%
[17]
  normalised response: 98.3%

## C[C@]1(c2nc3c(C(N)=O)cccc3[nH]2)CCCN1 [Veliparib] (10000 nM)
[1]
  normalised response: 96.5%
[2]
  normalised response: 106%
[3]
  normalised response: 98.2%
[5]
  normalised response: 86.6%
[6]
  normalised response: 87.9%
[7]
  normalised response: 103%
[18]
  normalised response: 110%
[8]
  normalised response: 117%
[9]
  normalised response: 110%
[10]
  normalised response: 90.5%
[11]
  normalised response: 109%
[12]
  normalised response: 107%
[13]
  normalised response: 88.2%
[14]
  normalised response: 112%
[15]
  normalised response: 95.4%
[16]
  normalised response: 125%
[17]
  normalised response: 92.3%

## CS(=O)(=O)c1ccc(C(=O)Nc2ccc(Cl)c(-c3ccccn3)c2)c(Cl)c1 [Vismodegib] (1000 nM)
[1]
  normalised response: 100%
[2]
  normalised response: 99.3%
[3]
  normalised response: 95%
[4]
  normalised response: 104%
[5]
  normalised response: 86.1%
[6]
  normalised response: 94.4%
[7]
  normalised response: 99%
[8]
  normalised response: 85.9%
[9]
  normalised response: 106%
[10]
  normalised response: 88.1%
[11]
  normalised response: 100%
[12]
  normalised response: 88.2%
[13]
  normalised response: 90.8%
[14]
  normalised response: 98%
[15]
  normalised response: 99.7%
[16]
  normalised response: 149%
[17]
  normalised response: 99.1%
